# Test results published in ChEMBL document CHEMBL1201862, “PubChem BioAssay data set” (2004).
# Active and inactive are the calls of the source.
# Tests used:
# X-box-binding protein 1 = X-box-binding protein 1 (Homo sapiens, UniProt P17861); type: functional, Cricetulus griseus;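 also: confirmatory dose-response counter-screen serving a CHOP assay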
# [1] = target: DNA damage-inducible transcript 3 protein (Mus musculus, UniProt P35639); type: functional, Cricetulus griseus
# Hexokinase = Hexokinase (Trypanosoma brucei, UniProt Q38C41); test: Confirmation assay for inhibitors of Trypanosoma brucei hexokinase 1-Analogue-first series. [Related pubchem assays (depositor defined):AID1430, AID1632, AID2516, AID2560, AID2579, AID2600, AID449725, AID492951]; type: functional
# Sequence of Hexokinase (Q38C41 whole entry): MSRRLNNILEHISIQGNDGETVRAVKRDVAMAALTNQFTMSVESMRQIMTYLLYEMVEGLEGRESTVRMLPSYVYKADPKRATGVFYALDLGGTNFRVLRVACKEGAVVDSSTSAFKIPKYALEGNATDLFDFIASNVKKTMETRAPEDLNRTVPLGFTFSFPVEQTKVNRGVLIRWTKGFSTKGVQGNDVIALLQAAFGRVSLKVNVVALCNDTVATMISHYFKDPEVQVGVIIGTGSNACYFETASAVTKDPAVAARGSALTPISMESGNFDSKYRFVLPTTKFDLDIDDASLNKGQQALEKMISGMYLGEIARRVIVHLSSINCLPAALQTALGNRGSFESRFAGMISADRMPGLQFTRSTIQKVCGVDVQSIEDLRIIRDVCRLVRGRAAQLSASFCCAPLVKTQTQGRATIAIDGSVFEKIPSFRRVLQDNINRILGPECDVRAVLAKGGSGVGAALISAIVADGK
# Vero [2] = test: cells; type: functional; settings: Chlorocebus sabaeus
# HT-1080 = test: HT1080 cell viability loss – fluorescence readout (AID 620); type: functional, cell-based; settings: Homo sapiens
# [3] = target: G-protein coupled receptor 55 (Homo sapiens, UniProt Q9Y2T6); test: selective activators of receptor GPR55 – imaging, U2OS cells, beta-arrestin-GFP redistribution, primary screen (AID 1961); type: functional
# Sequence of G-protein coupled receptor 55 (Q9Y2T6 whole entry): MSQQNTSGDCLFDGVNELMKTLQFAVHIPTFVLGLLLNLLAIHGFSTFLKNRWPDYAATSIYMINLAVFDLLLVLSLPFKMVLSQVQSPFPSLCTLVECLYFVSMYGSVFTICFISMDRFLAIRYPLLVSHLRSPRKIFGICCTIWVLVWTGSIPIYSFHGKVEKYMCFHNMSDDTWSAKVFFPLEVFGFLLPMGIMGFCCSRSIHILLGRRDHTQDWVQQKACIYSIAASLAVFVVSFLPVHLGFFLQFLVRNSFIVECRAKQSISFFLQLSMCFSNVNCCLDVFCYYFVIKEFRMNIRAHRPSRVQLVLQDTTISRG
# Vero [4] = test: cells; type: functional, cell-based; settings: Chlorocebus sabaeus
# [5] = Trypanosoma cruzi growth suppression in host cells – NIH3T3 host cells, beta-gal luminescence, confirmation (AID 2044); type: functional, cell-based;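 also: intracellular parasites grown in NIH/3T3 mouse fibroblasts as host cells; luminescent beta-galactosidase reporter signal from transgenic T. cruzi replicating inside host cells; inhibitors lower the luminescence signal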
# INS1 = test: INS-1E survival protection against cytokine death – cell-based, luminescence, retest, dose response (AID 449756); type: functional; settings: Rattus norvegicus;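 also: cell death triggered by IL-1 beta plus TNF-alpha plus IFN-gamma mixture; protective hits raise ATP signal compared with cytokine alone wells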
# [6] = target: Luciferin 4-monooxygenase (Photinus pyralis, UniProt P08659); test: Counter Screen for Luciferase-based Assay Positives. [Related pubchem assays: 620, 618, 411 ]
# Sequence of Luciferin 4-monooxygenase (P08659 whole entry): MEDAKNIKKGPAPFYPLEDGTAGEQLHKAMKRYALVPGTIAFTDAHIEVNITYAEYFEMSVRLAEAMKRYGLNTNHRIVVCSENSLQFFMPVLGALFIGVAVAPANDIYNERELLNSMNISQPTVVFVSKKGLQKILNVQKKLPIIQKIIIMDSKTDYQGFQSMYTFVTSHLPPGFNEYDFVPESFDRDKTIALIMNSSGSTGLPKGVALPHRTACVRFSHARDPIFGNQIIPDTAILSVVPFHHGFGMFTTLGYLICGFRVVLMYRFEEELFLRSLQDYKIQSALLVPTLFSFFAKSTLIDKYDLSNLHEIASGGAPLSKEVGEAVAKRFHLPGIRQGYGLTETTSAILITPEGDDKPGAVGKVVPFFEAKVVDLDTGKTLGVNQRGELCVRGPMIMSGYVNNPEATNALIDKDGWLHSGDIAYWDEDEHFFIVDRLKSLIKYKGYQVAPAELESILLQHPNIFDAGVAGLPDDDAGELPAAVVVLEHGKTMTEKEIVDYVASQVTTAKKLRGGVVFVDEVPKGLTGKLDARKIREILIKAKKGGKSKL
# [7] = NIH3T3 cell viability loss – ATP luminescence, mouse fibroblasts, counter-screen, dose response (AID 2010); type: functional, cell-based;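 also: cells exposed to compound for about 90 hours before reading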
# [8] = target: Glyceraldehyde-3-phosphate dehydrogenase (Homo sapiens, UniProt P04406)
# Sequence of Glyceraldehyde-3-phosphate dehydrogenase (P04406 whole entry): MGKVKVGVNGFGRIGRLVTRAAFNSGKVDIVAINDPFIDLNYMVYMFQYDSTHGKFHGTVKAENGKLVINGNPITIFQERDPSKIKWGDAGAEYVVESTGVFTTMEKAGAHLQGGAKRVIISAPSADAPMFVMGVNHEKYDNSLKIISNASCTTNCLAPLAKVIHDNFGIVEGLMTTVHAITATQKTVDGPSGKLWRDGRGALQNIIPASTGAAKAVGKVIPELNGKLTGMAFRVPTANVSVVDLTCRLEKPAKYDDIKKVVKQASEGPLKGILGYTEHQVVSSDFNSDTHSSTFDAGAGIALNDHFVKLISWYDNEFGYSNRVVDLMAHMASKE
# [9] = target: T1, Alkaline phosphatase, tissue-nonspecific isozyme (Homo sapiens, UniProt P05186); test: potency against alkaline phosphatase TNAP – biochemical, luminescent, dose response, SAR follow-up (AID 1056)
# T1 sequence (P05186 whole entry): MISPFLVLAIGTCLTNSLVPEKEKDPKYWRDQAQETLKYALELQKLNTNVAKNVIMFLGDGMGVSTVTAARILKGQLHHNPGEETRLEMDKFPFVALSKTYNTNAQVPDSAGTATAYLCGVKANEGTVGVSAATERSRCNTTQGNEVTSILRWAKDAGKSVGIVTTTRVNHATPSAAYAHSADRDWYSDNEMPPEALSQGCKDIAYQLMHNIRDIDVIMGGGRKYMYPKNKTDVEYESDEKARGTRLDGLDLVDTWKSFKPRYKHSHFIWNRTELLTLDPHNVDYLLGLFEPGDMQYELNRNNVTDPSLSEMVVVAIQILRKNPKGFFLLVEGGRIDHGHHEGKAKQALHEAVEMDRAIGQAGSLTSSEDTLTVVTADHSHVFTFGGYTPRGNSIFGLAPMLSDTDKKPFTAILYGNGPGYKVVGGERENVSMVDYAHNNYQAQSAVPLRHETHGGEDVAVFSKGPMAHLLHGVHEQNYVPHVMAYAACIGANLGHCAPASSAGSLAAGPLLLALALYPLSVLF
# [10] = HepG2 cell cytotoxicity, dose response, cytotoxicity control for non-replicating M. tuberculosis project (AID 489018); type: functional; settings: Mycobacterium tuberculosis
# [11] = Vero E6 cell cytotoxicity, dose response, cytotoxicity control for non-replicating M. tuberculosis project, secondary assay (AID 492998); type: functional, VeroE6; settings: Vero C1008
# [12] = THP-1 cell cytotoxicity, dose response, cytotoxicity control for non-replicating M. tuberculosis project (AID 489025); type: functional
# cells = type: functional
# [13] = Luminescence Cell-Based Dose Retest to Confirm Inhibitors of Cancer Stem Cells. [Related pubchem assays (depositor defined):AID2717, AID2721]; type: functional; settings: Homo sapiens
# [14] = target: T2, Ubiquitin-conjugating enzyme E2 N (Homo sapiens, UniProt P61088); type: functional;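 also: Dose-response confirmation in a TR-FRET assay detecting UBC13-driven polyubiquitin chain formation, inhibition measured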
# T2 sequence (P61088 whole entry): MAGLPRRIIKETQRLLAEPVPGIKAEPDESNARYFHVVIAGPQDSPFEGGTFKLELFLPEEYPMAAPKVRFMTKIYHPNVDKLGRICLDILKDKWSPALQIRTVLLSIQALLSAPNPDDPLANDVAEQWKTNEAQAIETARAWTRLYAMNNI
# Protein RecA = target: T3, Protein RecA (Mycobacterium tuberculosis, UniProt P9WHJ3); test: Fluorescence Cell-Free Homogeneous Dose Retest to Identify Inhibitors of RecA-Intein Splicing Activity. [Related pubchem assays (depositor defined):AID2097, AID2223, AID489010, AID492950]; type: functional
# T3 sequence (P9WHJ3 whole entry): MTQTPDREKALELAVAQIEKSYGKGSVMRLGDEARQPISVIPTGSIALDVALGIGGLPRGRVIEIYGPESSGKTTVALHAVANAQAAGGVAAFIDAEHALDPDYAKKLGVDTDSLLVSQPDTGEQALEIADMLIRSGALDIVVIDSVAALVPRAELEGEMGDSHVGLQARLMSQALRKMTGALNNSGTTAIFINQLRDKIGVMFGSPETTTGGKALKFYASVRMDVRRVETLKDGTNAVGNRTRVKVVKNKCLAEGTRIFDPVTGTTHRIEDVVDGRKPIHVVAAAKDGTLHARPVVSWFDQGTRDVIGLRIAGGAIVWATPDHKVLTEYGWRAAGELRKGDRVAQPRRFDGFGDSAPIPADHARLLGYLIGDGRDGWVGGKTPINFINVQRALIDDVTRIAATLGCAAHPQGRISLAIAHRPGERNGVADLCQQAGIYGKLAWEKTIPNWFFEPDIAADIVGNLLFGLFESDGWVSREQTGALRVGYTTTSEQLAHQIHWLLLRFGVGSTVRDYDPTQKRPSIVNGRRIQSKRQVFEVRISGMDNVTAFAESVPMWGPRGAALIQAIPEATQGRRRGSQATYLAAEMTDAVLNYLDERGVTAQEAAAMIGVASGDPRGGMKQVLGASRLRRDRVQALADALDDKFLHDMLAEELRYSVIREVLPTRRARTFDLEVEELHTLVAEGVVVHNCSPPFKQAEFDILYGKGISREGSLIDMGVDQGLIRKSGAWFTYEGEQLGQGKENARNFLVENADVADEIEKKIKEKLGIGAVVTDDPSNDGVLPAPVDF
# [15] = target: T4, Replicative DNA helicase DnaB (Mycobacterium tuberculosis, UniProt P9WMR3); test: DnaB intein splicing inhibitors, dose response, biochemical, cell-free fluorescence (AID 449749); type: functional
# T4 sequence (P9WMR3 whole entry): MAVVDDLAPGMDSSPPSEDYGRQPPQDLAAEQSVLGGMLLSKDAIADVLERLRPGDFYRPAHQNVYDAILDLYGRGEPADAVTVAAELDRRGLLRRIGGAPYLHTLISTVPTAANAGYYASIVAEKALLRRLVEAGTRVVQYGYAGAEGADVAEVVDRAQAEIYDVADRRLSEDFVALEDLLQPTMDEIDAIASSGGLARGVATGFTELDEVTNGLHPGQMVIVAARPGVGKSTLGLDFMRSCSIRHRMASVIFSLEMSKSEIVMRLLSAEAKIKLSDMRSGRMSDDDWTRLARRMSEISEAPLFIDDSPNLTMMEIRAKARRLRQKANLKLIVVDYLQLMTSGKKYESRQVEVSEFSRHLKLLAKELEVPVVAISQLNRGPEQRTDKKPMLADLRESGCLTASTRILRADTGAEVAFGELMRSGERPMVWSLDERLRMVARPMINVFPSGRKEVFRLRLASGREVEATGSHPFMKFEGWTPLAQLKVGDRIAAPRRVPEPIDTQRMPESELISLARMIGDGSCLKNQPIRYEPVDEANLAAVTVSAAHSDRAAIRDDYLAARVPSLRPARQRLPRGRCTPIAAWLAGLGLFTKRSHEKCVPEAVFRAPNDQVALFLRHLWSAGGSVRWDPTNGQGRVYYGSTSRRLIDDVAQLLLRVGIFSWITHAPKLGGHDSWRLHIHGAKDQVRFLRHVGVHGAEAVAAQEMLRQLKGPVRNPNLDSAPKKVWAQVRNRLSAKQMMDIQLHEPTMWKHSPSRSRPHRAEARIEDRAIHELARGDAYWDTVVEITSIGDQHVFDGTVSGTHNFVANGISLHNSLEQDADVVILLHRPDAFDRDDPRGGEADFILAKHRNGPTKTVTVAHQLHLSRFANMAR
# [16] = target: T5, Heat shock factor protein 1 (Mus musculus, UniProt P38532); test: enhancement of HSF1-driven luciferase signal – cell-based, NIH3T3, luminescence, dose retest, confirmation (AID 435004); type: functional;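 also: stress induced by proteasome inhibitor MG132 added 30 min after compound; luciferase reporter driven by HSF1 response element in NIH3T3 cells; actives raise luminescence as potentiators of the MG132 stress response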
# T5 sequence (P38532 whole entry): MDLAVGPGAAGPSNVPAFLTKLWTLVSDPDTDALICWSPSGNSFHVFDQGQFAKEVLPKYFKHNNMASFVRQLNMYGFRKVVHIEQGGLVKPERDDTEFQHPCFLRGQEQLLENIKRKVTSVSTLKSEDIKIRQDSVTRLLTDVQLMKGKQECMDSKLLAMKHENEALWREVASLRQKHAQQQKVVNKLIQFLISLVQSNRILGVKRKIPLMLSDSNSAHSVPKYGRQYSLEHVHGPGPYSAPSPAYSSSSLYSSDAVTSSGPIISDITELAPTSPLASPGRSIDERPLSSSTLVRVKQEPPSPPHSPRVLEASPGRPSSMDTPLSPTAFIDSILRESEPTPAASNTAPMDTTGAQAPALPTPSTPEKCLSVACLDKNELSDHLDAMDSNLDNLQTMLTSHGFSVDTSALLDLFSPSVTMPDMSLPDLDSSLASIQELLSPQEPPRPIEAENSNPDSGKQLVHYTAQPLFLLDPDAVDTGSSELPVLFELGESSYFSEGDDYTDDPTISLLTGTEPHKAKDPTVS
# [17] = viability of uninfected HEp-2 cells – cell-based, HTS, cytotoxicity control for RSV inhibitor project, dose response (AID 2410); type: functional; settings: human respiratory syncytial virus
# Large T antigen = Large T antigen (Simian virus 40, UniProt P03070); type: functional, Betapolyomavirus macacae;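 also: Confirmatory-stage PubChem screen for compounds that inhibit SV40 T antigen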
# Sequence of Large T antigen (P03070 whole entry): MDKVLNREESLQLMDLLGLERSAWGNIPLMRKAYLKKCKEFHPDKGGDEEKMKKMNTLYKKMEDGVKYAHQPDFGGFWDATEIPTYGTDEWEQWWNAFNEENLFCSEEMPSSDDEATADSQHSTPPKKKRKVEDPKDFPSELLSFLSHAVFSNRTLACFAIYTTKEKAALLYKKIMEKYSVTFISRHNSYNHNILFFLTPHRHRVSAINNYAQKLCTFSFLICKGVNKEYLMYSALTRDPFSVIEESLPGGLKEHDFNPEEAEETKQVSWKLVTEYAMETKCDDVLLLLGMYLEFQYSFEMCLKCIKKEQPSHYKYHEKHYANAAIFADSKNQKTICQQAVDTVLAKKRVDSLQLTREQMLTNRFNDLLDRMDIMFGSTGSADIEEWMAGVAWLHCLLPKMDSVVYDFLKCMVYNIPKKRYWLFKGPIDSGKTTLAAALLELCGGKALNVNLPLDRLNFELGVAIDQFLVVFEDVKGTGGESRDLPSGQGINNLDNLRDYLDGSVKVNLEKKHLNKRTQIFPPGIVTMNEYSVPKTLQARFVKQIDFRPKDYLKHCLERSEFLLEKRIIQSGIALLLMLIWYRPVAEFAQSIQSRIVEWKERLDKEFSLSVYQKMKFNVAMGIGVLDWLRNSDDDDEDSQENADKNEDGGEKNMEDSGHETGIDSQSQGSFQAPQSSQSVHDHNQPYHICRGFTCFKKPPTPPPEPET
# NS3 = NS3 (Hepatitis C virus, UniProt A3EZJ3); test: PubChem AID 2173; parameters: species or system Hepacivirus hominis
# Sequence of NS3 (A3EZJ3 whole entry, the tested form may be a part): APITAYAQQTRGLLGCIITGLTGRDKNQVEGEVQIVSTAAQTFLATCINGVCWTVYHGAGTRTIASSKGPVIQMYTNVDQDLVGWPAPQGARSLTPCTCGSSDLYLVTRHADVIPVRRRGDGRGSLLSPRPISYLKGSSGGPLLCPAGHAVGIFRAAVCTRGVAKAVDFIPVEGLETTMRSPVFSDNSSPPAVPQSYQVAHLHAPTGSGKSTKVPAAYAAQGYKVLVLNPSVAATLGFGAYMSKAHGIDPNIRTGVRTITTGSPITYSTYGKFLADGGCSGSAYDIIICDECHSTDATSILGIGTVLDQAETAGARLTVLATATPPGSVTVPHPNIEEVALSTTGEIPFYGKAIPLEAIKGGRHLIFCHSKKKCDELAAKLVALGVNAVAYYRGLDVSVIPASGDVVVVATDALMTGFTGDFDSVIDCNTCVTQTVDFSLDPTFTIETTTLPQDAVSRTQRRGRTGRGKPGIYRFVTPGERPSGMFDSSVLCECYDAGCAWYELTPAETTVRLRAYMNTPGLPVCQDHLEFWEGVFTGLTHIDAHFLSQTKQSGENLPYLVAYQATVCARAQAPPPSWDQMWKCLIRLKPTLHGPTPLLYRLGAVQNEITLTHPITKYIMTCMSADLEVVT
# [18] = target: T6, Runt-related transcription factor 1/Core-binding factor subunit beta (Homo sapiens, UniProt Q01196+Q13951); test: Runt domain/CBFb-SMMHC interaction disruptors – biochemical, TR-FRET (AID 1438); type: protein assay
# T6 sequence (Q01196 whole entry, the tested form may be a part): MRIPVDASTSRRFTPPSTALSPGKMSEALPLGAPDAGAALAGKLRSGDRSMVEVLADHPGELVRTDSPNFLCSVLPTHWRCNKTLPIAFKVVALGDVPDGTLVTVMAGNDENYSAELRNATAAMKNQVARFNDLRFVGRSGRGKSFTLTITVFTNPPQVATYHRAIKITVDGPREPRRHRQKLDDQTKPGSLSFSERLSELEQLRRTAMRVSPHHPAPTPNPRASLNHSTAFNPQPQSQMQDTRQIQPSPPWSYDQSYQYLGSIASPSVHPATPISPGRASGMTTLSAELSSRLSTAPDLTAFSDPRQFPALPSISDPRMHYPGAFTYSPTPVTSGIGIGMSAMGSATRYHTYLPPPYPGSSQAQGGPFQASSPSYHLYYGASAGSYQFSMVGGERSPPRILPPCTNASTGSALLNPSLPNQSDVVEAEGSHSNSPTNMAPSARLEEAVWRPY
# T6 sequence (Q13951 whole entry, the tested form may be a part): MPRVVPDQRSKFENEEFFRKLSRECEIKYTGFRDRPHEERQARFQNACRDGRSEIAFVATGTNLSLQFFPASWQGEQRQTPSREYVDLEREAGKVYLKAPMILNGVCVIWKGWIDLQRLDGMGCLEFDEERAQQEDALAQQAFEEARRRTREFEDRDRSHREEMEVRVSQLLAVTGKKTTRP
# [19] = target: T6, Runt-related transcription factor 1/Core-binding factor subunit beta; test: disruptors of Runt domain/CBFb-SMMHC interaction – biochemical, FRET, Cerulean-Runt, Venus-CBFb-SMMHC, uHTS, […] (AID 1434); type: protein assay
# Cytochrome P450 2C9 = Cytochrome P450 2C9 (Homo sapiens, UniProt P11712)
# Sequence of Cytochrome P450 2C9 (P11712 whole entry, the tested form may be a part): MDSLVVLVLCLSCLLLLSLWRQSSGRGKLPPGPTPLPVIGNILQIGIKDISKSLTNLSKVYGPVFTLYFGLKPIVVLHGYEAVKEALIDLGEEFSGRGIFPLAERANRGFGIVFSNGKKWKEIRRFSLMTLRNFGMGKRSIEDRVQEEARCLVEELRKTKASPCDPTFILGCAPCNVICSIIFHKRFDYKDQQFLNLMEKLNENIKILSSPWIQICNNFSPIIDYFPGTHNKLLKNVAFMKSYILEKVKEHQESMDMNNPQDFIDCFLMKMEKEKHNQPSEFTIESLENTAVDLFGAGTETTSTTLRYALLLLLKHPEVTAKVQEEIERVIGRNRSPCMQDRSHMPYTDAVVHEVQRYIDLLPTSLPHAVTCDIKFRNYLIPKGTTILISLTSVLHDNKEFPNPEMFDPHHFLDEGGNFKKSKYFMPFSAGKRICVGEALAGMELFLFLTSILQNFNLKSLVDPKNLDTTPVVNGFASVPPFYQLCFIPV
# [20] = target: T7, Type-1 angiotensin II receptor (Homo sapiens, UniProt P30556); test: agonist activity at AGTR1 – cell-based, uHTS hits, selectivity assay for APJ receptor agonist project, dose response (AID 488865); type: functional;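 also: beta-arrestin recruitment to AT1 measured by enzyme fragment complementation luminescence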
# T7 sequence (P30556 whole entry): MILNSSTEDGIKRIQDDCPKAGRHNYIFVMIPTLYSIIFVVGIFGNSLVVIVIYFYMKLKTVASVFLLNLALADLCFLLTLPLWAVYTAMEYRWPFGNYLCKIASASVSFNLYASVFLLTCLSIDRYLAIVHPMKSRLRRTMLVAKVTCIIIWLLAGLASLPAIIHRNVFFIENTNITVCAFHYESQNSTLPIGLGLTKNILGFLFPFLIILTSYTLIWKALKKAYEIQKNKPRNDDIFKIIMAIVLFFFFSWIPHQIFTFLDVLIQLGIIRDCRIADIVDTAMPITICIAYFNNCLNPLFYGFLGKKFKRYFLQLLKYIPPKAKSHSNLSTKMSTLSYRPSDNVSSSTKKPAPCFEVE
# CAAX prenyl protease 2 = CAAX prenyl protease 2 (Saccharomyces cerevisiae S288c, UniProt Q03530); type: biochemical
# Sequence of CAAX prenyl protease 2 (Q03530 whole entry): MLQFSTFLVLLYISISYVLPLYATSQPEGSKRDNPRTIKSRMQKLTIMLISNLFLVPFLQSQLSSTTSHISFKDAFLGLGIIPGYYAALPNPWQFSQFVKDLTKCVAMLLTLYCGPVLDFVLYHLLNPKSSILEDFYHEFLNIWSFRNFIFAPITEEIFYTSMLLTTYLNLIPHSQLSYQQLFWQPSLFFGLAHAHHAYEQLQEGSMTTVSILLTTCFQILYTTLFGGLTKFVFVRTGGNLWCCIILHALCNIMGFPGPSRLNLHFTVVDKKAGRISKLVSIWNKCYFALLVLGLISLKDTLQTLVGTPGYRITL
# Sequence of DNA damage-inducible transcript 3 protein (P35639 whole entry): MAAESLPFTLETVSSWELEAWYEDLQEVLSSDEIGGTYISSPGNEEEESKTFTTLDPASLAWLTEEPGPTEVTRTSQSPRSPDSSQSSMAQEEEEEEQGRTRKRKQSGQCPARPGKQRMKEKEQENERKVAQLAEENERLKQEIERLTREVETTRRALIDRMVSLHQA
# Sequence of X-box-binding protein 1 (P17861 whole entry): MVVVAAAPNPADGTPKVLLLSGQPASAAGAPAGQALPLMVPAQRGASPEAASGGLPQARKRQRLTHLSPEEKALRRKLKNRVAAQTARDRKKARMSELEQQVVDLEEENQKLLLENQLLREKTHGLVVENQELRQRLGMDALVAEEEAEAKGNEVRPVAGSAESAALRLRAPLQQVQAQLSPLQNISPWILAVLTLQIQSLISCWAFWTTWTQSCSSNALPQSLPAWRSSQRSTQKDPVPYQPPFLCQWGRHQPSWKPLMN
structure (smiles),measurement,setting,value
CCc1nc(NCC(C)C)c(C#N)c2c1COC(C)(C)C2,Absolute IC50 (XBP1),X-box-binding protein 1,10 µM
same,Absolute IC50 (CHOP),[1],10 µM
COc1ccc(C(=O)O)c(NC(=O)c2ccc(Cl)cc2)c1,IC50,Hexokinase,> 25 µM (inactive)
CCOC(=O)/C(=C\c1ccccc1)C(=O)c1cc(C(C)=O)c(Nc2ccccc2)s1,CC50,Vero [2],14.8 µM (active)
same,EC50,HT-1080,20.3 µM (active)
same,EC50,[3],1.06 µM (active)
same,IC50,Vero [4],> 25 µM (active)
same,EC50,[5],2.35 µM (active)
same,AC50,INS1,5.42 µM (active)
same,EC50,[6],< 0.2 µM (active)
same,EC50,[7],6.8 µM (active)
COC(=O)c1cc(-c2ccc(Cl)c(Cl)c2Cl)n[nH]1,IC50,[8],> 10 µM (inconclusive)
same,IC50,[9],0.24 µM (active)
Oc1ccc(Cl)cc1C1=NNC(c2cccs2)C1 (stereo unspecified),CC50,[10],> 20 µM (active)
same,CC50,[11],> 20 µM (active)
same,CC50,[12],22.6 µM (active)
same,IC50,cells,44.6 µM (active)
c1ccc(C[C@H]2CNCCN2CCCCC2CCCCC2)cc1,CC50,[10],12.2 µM (active)
same,AC50,[13],7.01 µM (active)
same,CC50,[11],18.1 µM (active)
same,CC50,[12],13.9 µM (active)
same,IC50,cells,27.4 µM (active)
same,IC50,[14],> 20 µM (inactive)
CCOC(=O)c1c(NC(=S)N2CCCCC2)sc2c1CCN(C(=O)OCC)C2,EC50,[3],5.41 µM (active)
same,EC50,Protein RecA,12.7 µM (active)
same,AC50,[15],3.64 µM (active)
same,EC50,[16],12.3 µM (active)
Cc1ccc(N2C(=O)NC(=O)/C(=C\C=C\c3ccco3)C2=O)cc1C,CC50,[17],> 50 µM (active)
same,EC50,[16],4.85 µM (active)
same,Absolute IC50 (CHOP),[1],10 µM
same,AC50,INS1,4.83 µM (active)
same,IC50,Large T antigen,16.4 µM (active)
same,IC50,NS3,14.4 µM (not active)
O=c1s[nH]c2ccccc12,IC50,Hexokinase,> 25 µM (inactive)
CCOC(=O)c1cc2c(=O)n3cccc(C)c3nc2n(Cc2ccco2)/c1=N/C(=O)c1ccccc1,IC50,[18],> 100 µM (inactive)
same,IC50,[19],13.1 µM (active)
COc1cc2c(cc1NC(=O)c1cc(-c3cccnc3)nc3ccc(C)cc13)oc1ccccc12,AC50,Cytochrome P450 2C9,2.51 µM (inconclusive)
same,EC50,[20],> 100 µM (inactive)
O=C(O)CCc1ccc(-c2cccs2)n1Cc1ccco1,AC50,CAAX prenyl protease 2,2.57 µM (active)
CCc1ccc(C2C3=C(O)CC(C)(C)CC3=Nc3c2c(O)nc2nc(C)nn32)cc1 (stereo unspecified),IC50,[18],31.2 µM (active)
same,IC50,[19],3.68 µM (active)
